Assays:
[1] = tissue exposure following i.p. administration; format: in vivo, C57Bl/6 J mice; conditions: mice
Description: To test the efficacy of STL1267 in vivo, we began by assessing tissue exposure following i.p. administration. We administered vehicle or 50 mg/kg of STL1267 via intraperitoneal injection to C57Bl/6 J mice. The mice were sacrificed at four subsequent time points over the next 12 h.
All in vivo studies were performed using the ARRIVE guidelines and approved by the Washington University IACUC. C57Bl/6J mice (male; 6–8 weeks of age) maintained at 12:12 h light;dark, 22 °C, 40–60% humidity. Mice were injected IP with 50 mg/kg STL1267 (n = 3–4 per group) or vehicle (10% DMSO, 12% TWEEN80, PBS) (n = 3–4 per group). Mice were weighed immediately following the injection and were weighed again immediately after sacrifice. Mice were fasted started at the time of injection. For tissue collection, three STL1267-injected mice were sacrificed at 1 h post-injection, and three more were sacrificed at 3 h post-injection. At 8 h and 12 h post-injection, six mice from each treatment group were taken down and tissue was collected. The tissues collected at all four time points include plasma, white adipose tissue, brain, liver, and skeletal muscle (quadriceps). […] Analytes were extracted using protein precipitation techniques with acetonitrile and samples were then analyzed using a SCIEX Triple Quad 5500+ system – QTRAP ready linked to an ExionLC AD-HPLC system. […]

PXR = PXR (Homo sapiens, UniProt O75469); test: PXR assay; format: cell-based; conditions: relative to 5μM rifampicin
Source text: We thank the reviewers for the constructive comments, and we have responded to each of the […]
Overall, this is a commendable structure-function study on the transcriptional repressor, REV-ERBα. It includes the identification of an agonist that belongs to the non-heme class of small ligands. The study combines cell-based and in vitro, in vivo, and crystallographic analyses of the ligand-receptor molecular complex.
However, as a spring-board for therapeutic drug discovery, there are a few additional issues that may need to be clarified.
1. In the HEK293 2-hybrid assay, the ERB agonists are described as activators of transcription.
Perhaps, they would be more appropriately described as 'repressors'.
We have updated the manuscript to clarify this issue. In the original manuscript, we used the following to describe how the 2-hybrid assay switches agonists from repressors to activators to allow for better resolution of activity, “This format of the assay essentially functions as a mammalian 2-hybrid assay and detects REVERB agonists as activators of transcription effectively enhancing the sensitivity of such an assay from the typical one hybrid system that detects enhancement of transcriptional repression.” […]

Chain of PXR (O75469 whole entry): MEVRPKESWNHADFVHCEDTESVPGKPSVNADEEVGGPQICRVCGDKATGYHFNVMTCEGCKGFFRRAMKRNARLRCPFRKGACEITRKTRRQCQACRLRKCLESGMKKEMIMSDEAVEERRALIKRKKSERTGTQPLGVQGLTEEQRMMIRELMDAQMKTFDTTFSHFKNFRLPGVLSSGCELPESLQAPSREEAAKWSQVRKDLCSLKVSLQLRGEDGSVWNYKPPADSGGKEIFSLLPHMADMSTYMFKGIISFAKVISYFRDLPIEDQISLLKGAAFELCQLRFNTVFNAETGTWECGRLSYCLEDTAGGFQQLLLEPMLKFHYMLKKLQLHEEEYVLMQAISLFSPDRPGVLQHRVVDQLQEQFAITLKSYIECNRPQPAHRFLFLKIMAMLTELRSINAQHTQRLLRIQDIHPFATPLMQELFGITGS

half-life ([1]; male, C57Bl/6J, mouse, plasma, ip, 50 mg/kg intraperitoneal injection): ~1.6 h
tissue distribution (brain, plasma, liver, skeletal muscle, white adipose tissue) ([1]; 50 mg/kg i.p.): localized in all the tissues collected
activity at PXR, of the activity of 5μM rifampicin (PXR): 18%
Structure (SMILES): Clc1nnc2ccc(Oc3ccccc3-c3ccccc3)nn12 [STL1267]

From paper PMC9681850, “Structural basis of synthetic agonist activation of the nuclear receptor REV-ERB” (Nature Communications, 2022)
